The source of these data is patent US20240050510A1, “COMBINATION THERAPY COMPRISING UNCARIA FOR TREATING ANXIETY AND DEPRESSION” (The Open University, priority 2020, published 2024).

Assay [1] relates to ICR outbred mice. Briefly: Novel Open Field (NOF), anxiety-like behavior. Particulars: 3 weeks of treatment after 30 days UCMS (FIG. 4B); in comparison to the Saline and UR groups. The class given is in vivo. The protocol: Animals. ICR outbred mice (Envigo RMS (Harlen), Israel) were kept in the vivarium of the Psychobiological laboratory of the Open University, […] Medical Center, Jerusalem. Mice were kept on a reversed 12-hour light/dark cycle and given ad libitum access to food and water. All experiments were performed during the dark phase under red light (7:00-19:00). All experiments were approved by the Committee for animal care and use according to the NIH guidelines. Drugs administration. […] Unpredictable chronic mild stress (UCMS). Mice were exposed to UCMS for 4 weeks at the age of 4 weeks as previously described (Malkoff, A., et al. (2008) J Neural Transm 115, 1563-1571). Novel Open Field (NOF). The novel open field consists of an empty square arena (40×40×40 cm) divided into 36 identical squares and surrounded by Perspex opaque walls. […] Mice were placed in the center of the arena and their behavior was video recorded for a total of 5 min, and later coded by an observer blind to the mice's treatment. Anxiety-like behavior was measured by the time spent in the peripheral area, i.e., the peripheral ring of the arena (6.67 cm from each wall, Walsh & Cummins, (1976) Psychological Bulletin, 83 (3), 482-504). […] Effects were evaluated in independent mice groups following 1 and 3 weeks of treatment. […]

The test system of another assay is BDNF. Briefly: Hippocampal BDNF levels by sandwich ELISA. The class given is in vivo, mice. Particulars: 3-week treatment (FIG. 3B), compared to saline. As for the experimental part: Animals. ICR outbred mice (Envigo RMS (Harlen), Israel) were kept in the vivarium of the Psychobiological laboratory of the Open University, […] Medical Center, Jerusalem. Mice were kept on a reversed 12-hour light/dark cycle and given ad libitum access to food and water. All experiments were performed during the dark phase under red light (7:00-19:00). All experiments were approved by the Committee for animal care and use according to the NIH guidelines. Drugs administration. […] Assessment of BDNF levels. Hippocampus tissue samples are prepared as previously described ([…]., et al., European neuropsychopharmacology, 2006. 16(5): p. 329-339). Briefly, tissues were homogenized in cold extraction Tris-buffer and then acidified with 0.1 M HCl (pH 3.0) for 15 min at room temperature. Homogenates were neutralized with 0.1 M NaOH (pH 7.6) and centrifuged in a microcentrifuge at 7,000 g for 10 min. BDNF levels in the supernatant were evaluated using sandwich ELISA as previously described (Baker-Herman, T. L., et al., Nat Neurosci, 2004. 7(1): p. 48-55).

For assay [2], the system named is ICR outbred mice. Briefly: Open field test (OFT), anxiety-like behavior. Type of assay: in vivo. The note with it: 1-week treatment (FIG. 1C). The protocol: (§1) Animals. ICR outbred mice (Envigo RMS (Harlen), Israel) were kept in the vivarium of the Psychobiological laboratory of the Open University, […] Medical Center, Jerusalem. Mice were kept on a reversed 12-hour light/dark cycle and given ad libitum access to food and water. All experiments were performed during the dark phase under red light (7:00-19:00). All experiments were approved by the Committee for animal care and use according to the NIH guidelines. Drugs administration. […] Unpredictable chronic mild stress (UCMS). Mice were exposed to UCMS for 4 weeks at the age of 4 weeks as previously described (Malkoff, A., et al. (2008) J Neural Transm 115, 1563-1571). Elevated plus-maze (EPM) and Open field test (OFT). Anxiety-like behavior was assessed using EPM and OFT as previously described ([…]. (2009) Brain Res 1256, 138-148). Locomotion was assessed using the OFT and expressed as the percentage of time that the mouse moved in a velocity above 0.1 pixel/sec.

The test system of assay [3] is ICR outbred mice. The assay is described as follows: Forced Swim Test (FST), depressive-like behavior. The class given is in vivo. The note with it: 3 week treatment after 30 days UCMS (FIG. 5B); in comparison to the NHT and Saline groups. The protocol: Animals. ICR outbred mice (Envigo RMS (Harlen), Israel) were kept in the vivarium of the Psychobiological laboratory of the Open University, […] Medical Center, Jerusalem. Mice were kept on a reversed 12-hour light/dark cycle and given ad libitum access to food and water. All experiments were performed during the dark phase under red light (7:00-19:00). All experiments were approved by the Committee for animal care and use according to the NIH guidelines. Drugs administration. […] Unpredictable chronic mild stress (UCMS). Mice were exposed to UCMS for 4 weeks at the age of 4 weeks as previously described (Malkoff, A., et al. (2008) J Neural Transm 115, 1563-1571). Forced Swim Test (FST). […] Depression like behavior was measured as the time the animal spent floated without moving, and swimming was defined as the time the animal spent engaged in active swimming or struggle movement. Effects were evaluated in independent mice groups following 1 and 3 weeks of treatment. The test was recorded by Viewer III (BIOB SERVE) software. […] Data was analyzed using a one-way ANOVA with Treatment as a between subject variable, performed on the time spent in the center area in the Novel Open Field and the time spent in the open arms for anxiety like behavior, and depressive like behavior was measured as the time the animal spent floating without moving. […]

Assay [4] concerns ICR outbred mice. Briefly: Elevated plus-maze (EPM), anxiety-like behavior in UCMS-stressed mice. Particulars: 3-week treatment (FIG. 2), compared to saline. Type of assay: in vivo. As for the experimental part:
as §1, with “pixel/sec. Data analysis and interpretation of results. Data was analyzed using a one-way ANOVA with Treatment as a between subject variable, performed on the time spent in the center area in the Novel Open Field and the time spent in the open arms for anxiety like behavior, and depressive like behavior was measured as the time the animal spent floating without moving. […]” for “pixel/sec.”

The conditions of assay [5]: literature; cited from earlier work.

Turning to `CN(C)CCC[C@@]1(c2ccc(F)cc2)OCc2cc(C#N)ccc21` [escitalopram], the “time in the center of the arena, novel open field” value with ICR outbred mice [1] was “spent significantly more time in the center of the arena”. Also, the “hippocampal BDNF levels” value with BDNF is “increased BDNF levels”. The “anxiety-like behavior in the OFT” value with ICR outbred mice [2] is given as “ineffective”. In addition, the “time floated-immobile in the FST (depressive-like behavior)” value with ICR outbred mice [3] is listed as “spent significantly less time floated-immobile”. Also, the “anxiety-like behavior in the EPM (time spent in the open arms)” value with ICR outbred mice [4] is “reduced anxiety-like behavior”.

In the case of `C/C=C1/CN2CCc3c([nH]c4ccccc34)[C@@H]2C[C@@H]1/C(=C/OC)C(=O)OC` [GM, geissoschizine methyl ether], the “isolation-induced increased aggressiveness and decreased sociality” value in assay [5] is “ameliorated”.
